Source: patent US20100160286A1, “HETEROARYLCARBAMOYLBENZENE DERIVATIVES FOR THE TREATMENT OF DIABETES” (ASTRAZENECA UK LIMITED AB, priority 2005, published 2010)

How the values were obtained:
Zucker obese fa/fa rats = test: Oral Glucose Tolerance Test; format: in vivo, rat; details: 10 mg/kg; given orally 120 minutes before oral glucose 2 g/kg; Zucker obese fa/fa rats on high fat diet
Method: (2) Oral Glucose Tolerance Test (OGIT) Oral glucose tolerance tests were done on conscious Zucker obese fa/fa rats (age 12-13 weeks or older) fed a high fat diet (45% kcal fat) for at least two weeks prior to experimentation. The animals were fasted for 2 hours before use for experiments. A test compound or a vehicle was given orally 120 minutes before oral administration of a glucose solution at a dose of 2 g/kg body weight. Blood glucose levels were measured using a Accucheck glucometer from tail bled samples taken at different time points before and after administration of glucose (time course of […]). A time curve of the blood glucose levels was generated and the area-under-the-curve (AUC) for 120 minutes was calculated (the time of glucose administration being time zero). Percent reduction in glucose excursion was determined using the AUC in the vehicle-control group as zero percent reduction.

[1] = molecular target: T1, recombinant human pancreatic GLK (Homo sapiens, UniProt P35557); test: biochemical
T1 sequence (P35557 1-465): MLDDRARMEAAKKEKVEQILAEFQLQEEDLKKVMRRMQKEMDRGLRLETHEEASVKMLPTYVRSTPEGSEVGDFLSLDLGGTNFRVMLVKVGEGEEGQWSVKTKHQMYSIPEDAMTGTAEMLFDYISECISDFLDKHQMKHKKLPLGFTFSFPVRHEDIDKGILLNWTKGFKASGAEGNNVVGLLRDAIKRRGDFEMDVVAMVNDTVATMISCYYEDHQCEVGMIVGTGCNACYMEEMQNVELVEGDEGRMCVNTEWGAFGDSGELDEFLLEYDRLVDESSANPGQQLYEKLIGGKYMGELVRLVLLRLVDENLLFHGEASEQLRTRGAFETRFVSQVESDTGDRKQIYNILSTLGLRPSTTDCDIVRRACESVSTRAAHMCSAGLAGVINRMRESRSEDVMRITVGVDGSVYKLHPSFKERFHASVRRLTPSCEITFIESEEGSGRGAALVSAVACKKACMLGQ

Row | SMILES | effect in the Oral Glucose Tolerance Test (percent reduction in glucose excursion, AUC vs vehicle control) (Zucker obese fa/fa rats) [%] | EC50 [1] [nM]
1 | Cn1ccc(NC(=O)c2cc(Oc3ccc(C(=O)N4CCC4)cc3)cc(O[C@H]3CCOC3)c2)n1 [Example 2, 3-{[4-(Azetidin-1-ylcarbonyl)phenyl]oxy}-N-(1-methyl-1H-pyrazol-3-yl)-5-[(3S)-tetrahydrofuran-3-yloxy]benzamide] | 42 | 
2 | C#C[C@H](C)Oc1cc(Oc2ccc(C(=O)N3CCC3)cc2)cc(C(=O)Nc2ccn(C)n2)c1 [Example 7, 3-{[4-(Azetidin-1-ylcarbonyl)phenyl]oxy}-5-{[(15)-1-methylprop-2-yn-1-yl]oxy}-N-(1-methyl-1H-pyrazol-3-yl)benzamide] |  | 60
